From ChEMBL document CHEMBL1201862, “PubChem BioAssay data set” (2004)
Activity calls are given as the source filed them. Rule as the data show it, for most assays here: actives have a measured EC50 and inactives only a lower limit.

What was measured:
[1] = NIH-3T3 fibroblast cytotoxicity, dose response, cytotoxicity control, cell-based, fluorescence, Alamar Blue, secondary assay (AID 2327); assay type: functional;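 also: NIH-3T3 mouse fibroblasts cultured with fluconazole at 8 µg/mL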
[2] = fluconazole-exposed Candida albicans growth modulators – fluorescence, retest, confirmation (AID 2467); assay type: functional, cell-based
H9c2 = test: cells; assay type: functional, cell-based; details: Rattus norvegicus, H9c2, Myocardium;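 also: confirmatory concentration-response retest of ultra-high-throughput screening hits for modulation of myocardial damage; cell death induced by hydrogen peroxide oxidative stress; compound pretreatment for 60 min then peroxide exposure for 2 h; potency is for protecting the cells against peroxide damage rather than for killing them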
[3] = test system: Streptococcus sp. 'group A'; test: Streptococcus pyogenes SK(-)GAS viability under kanamycin – luminescence, BacTiterGlo, confirmation, counter-screen for streptokinase expression inhibitor project, dose response (AID 1900); assay type: functional, organism-based
Streptokinase A = molecular target: T1, Streptokinase A (Streptococcus pyogenes serotype M1, UniProt P10520); test: viability-normalized secreted streptokinase activity reduction – plasminogen activation absorbance, OD405, dose response (AID 1914); assay type: functional, Streptococcus pyogenes M1 GAS;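 also: secreted streptokinase activity via plasminogen activation per viability signal from cell pellet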
T1 sequence (P10520 whole entry): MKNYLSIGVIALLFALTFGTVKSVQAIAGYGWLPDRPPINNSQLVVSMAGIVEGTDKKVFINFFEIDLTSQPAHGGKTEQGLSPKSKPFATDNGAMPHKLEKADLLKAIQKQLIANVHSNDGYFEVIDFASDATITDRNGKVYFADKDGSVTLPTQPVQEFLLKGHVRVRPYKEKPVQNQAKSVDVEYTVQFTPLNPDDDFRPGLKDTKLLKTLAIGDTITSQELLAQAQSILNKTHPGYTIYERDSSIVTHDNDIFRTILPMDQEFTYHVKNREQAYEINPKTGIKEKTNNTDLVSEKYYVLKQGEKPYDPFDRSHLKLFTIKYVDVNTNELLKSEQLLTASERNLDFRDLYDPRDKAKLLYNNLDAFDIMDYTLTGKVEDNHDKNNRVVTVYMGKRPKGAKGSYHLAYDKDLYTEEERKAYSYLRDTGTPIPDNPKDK

Streptococcus = test: GAS UMAA2166 growth inhibition – luminescence, BacTiterGlo, counter-screen for streptokinase expression inhibitor project, dose response (AID 1915); assay type: functional, organism-based;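 also: potency for reduction of bacterial viability or growth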
[4] = molecular target: T2, Corticotropin-releasing factor receptor 2/Corticotropin-releasing factor-binding protein (Homo sapiens, UniProt P24387+Q13324); test: activators of CRF receptor 2 with binding protein – uHTS hits, confirmation (AID 602473); assay type: functional; details: read-out: EC50_Mean
T2 sequence (Q13324 whole entry): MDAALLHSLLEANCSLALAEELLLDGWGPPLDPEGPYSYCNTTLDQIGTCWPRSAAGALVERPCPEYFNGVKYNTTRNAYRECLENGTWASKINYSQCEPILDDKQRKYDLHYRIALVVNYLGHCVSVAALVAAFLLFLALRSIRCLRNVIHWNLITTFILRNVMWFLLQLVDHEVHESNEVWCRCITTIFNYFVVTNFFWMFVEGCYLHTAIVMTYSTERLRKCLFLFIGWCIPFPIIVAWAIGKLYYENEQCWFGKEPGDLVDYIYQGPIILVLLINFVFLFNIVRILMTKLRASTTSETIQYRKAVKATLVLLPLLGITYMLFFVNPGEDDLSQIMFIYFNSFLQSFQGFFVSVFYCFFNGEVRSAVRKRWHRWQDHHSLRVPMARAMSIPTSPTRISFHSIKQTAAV
T2 sequence (P24387 whole entry): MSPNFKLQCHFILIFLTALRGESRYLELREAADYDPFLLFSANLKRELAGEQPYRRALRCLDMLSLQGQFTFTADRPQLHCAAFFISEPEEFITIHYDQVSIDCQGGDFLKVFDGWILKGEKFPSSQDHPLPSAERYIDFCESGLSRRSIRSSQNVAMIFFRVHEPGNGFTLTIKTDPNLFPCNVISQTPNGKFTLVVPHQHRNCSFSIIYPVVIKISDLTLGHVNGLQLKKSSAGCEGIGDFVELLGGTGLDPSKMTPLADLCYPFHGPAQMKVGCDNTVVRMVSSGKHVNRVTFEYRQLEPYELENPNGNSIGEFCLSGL

[5] = reduction of Shn3 3'UTR-driven luciferase in osteoblasts – cell-based, Clone20 osteoblasts, firefly luciferase, cherry-picked, dose response (AID 624132); assay type: functional;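 also: firefly luciferase luminescence from reporter carrying the Shn3 3'UTR in osteoblasts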

CC(C)Cc1ccc(CN2CCCC(NC(=O)CCN3CCCO3)C2)cc1 (stereo not drawn)
EC50 [1]: > 160 µM (inconclusive)
EC50 [2]: > 38 µM (not active)

COc1cc(NC(=O)c2c(OC)cccc2OC)ccc1NC(=O)c1cc2ccccc2o1
IC50 (H9c2): > 79 µM (inactive)

CC(Sc1ccc(Cl)cc1)C(=O)NCc1ccc2c(c1)OCO2 (stereo not drawn)
EC50 [1]: > 150 µM (inactive)
EC50 [2]: 2.94 µM (active)

COc1cccc(OC)c1C(=O)Nc1cc(C)nn1-c1nc2ccccc2[nH]1
EC50 [3]: 15.5 µM (active)
EC50 (Streptokinase A): > 150 µM (not active)
EC50 (Streptococcus): > 150 µM (not active)
IC50 (H9c2): > 79 µM (inactive)

COc1cc(NC(=O)c2ccco2)c(C(=O)OCC(=O)c2c[nH]c3ccccc23)cc1OC
IC50 (H9c2): > 79 µM (inactive)

CCC1(CC)NC(=O)N(CC(=O)OCC(=O)Nc2ccccc2[N+](=O)[O-])C1=O
IC50 (H9c2): 11.9 µM (active)

O=C(Cn1[nH]c(=O)c2ccccc2c1=O)NCC1COc2ccccc2O1 (stereo not drawn)
IC50 (H9c2): 48.7 µM (inactive)

COc1ccc(-n2cccc2/C=C2\C(=N)N3N=C(C(C)C)SC3=NC2=O)cc1
EC50 [1]: > 150 µM (inactive)
EC50 [2]: > 38 µM (not active)

COc1cccc(NC(=S)NC(=O)Cc2ccc(Cl)cc2)c1
EC50 [4]: 5.76 µM (active)

O=S(=O)(NC1CCCCC1N1CCN(c2ccccc2F)CC1)c1ccc(Cl)cc1 (stereo not drawn)
EC50 [4]: 6.24 µM (active)

CCc1nc2ccccc2c(C(=O)OCc2nc(O)c3ccccc3n2)c1C
IC50 (H9c2): 5.84 µM (active)

O=C(Nc1ccccc1)c1cccc2c(-c3cccnc3)coc12
IC50 (H9c2): > 79 µM (inactive)

CCCCc1ccc(/N=C/C2=C(O)OC3(CCCCC3)OC2=O)cc1
EC50 [4]: 5.81 µM (active)

O=C(N/N=C/c1ccccn1)c1cc(-c2ccncc2)nc2ccccc12
IC50 (H9c2): > 79 µM (inactive)

O=C(N/N=C/c1ccc2c(c1)OCO2)c1cc(-c2ccccc2Cl)nc2ccccc12
EC50 [1]: 94.7 µM (inconclusive)
EC50 [2]: 0.684 µM (active)

CC(=O)OCC(=O)[C@@]1(O)CC[C@H]2[C@@H]3CCC4=CC(=O)CC[C@]4(C)[C@H]3C(=O)C[C@@]21C [CORTISONE ACETATE]
AC50 [5]: 28.3 µM (active)
